13 compounds from publication PMC8493801, “Exploring the Monoterpene Indole Alkaloid Scaffold for Reversing P-Glycoprotein-Mediated Multidrug Resistance in Cancer” (Pharmaceuticals, 2021) can be followed below.

Where only a bound is given, the exact number is not on record here.

For data set [1], the system named is human ABCB1-transfected L5178Y mouse lymphoma cells. The data set is described as follows: Checkerboard combination assay with doxorubicin. The data set is classed as cell-based. Set-up: key to CI at ED50 (combination index): CI <1 synergy, =1 additive, >1 antagonism. The conditions noted are these: MDR cells; for CI at ED50 (combination index): best ratio. On the procedure: The in vitro interactions between the compounds and the well-known antitumor drug and P-gp substrate, doxorubicin, were evaluated in a combination chemotherapy model on human ABCB1-transfected mouse T-lymphoma cells. The nature of drug–drug interactions was assessed by determination of the combination index (CI) using the Chou and Talalay method (Figure 1), and therefore evaluated as synergistic (CI < 1), additive (CI = 1), or antagonistic (CI > 1).
Doxorubicin (2 mg/mL, Teva Pharmaceuticals, Budapest, Hungary) was serially diluted horizontally in 100 µL as previously described, starting with 8.6 µM. The resistance modifier was subsequently diluted vertically in 50 µL; the starting concentration was determined based on the IC50. […] The checkerboard plates were kept for 72 h at 37 °C in a CO2 incubator, and at the end of the incubation period, the cell growth was determined by MTT staining method, as described earlier. Drug interactions were evaluated using Calcusyn software. Each dose–response curve (for individual agents as well as combinations) was fit to a linear model using the median effect equation in order to obtain the median effect value (corresponding to the IC50) and slope (m). The goodness-of-fit was assessed using the linear correlation coefficient, r, and only data from analysis with r > 0.90 were presented. The extent of interaction between drugs was expressed using the combination index, in which a CI value close to 1 indicates additivity, while a CI < 1 is defined as synergy and a CI > 1 as antagonism.

The test system of data set [2] is mouse embryonic fibroblasts (NIH/3T3). Description: MTT antiproliferative assay, non-cancer cells. The conditions noted are these: for SI C/B (Selectivity Index): IC50 NIH/3T3 / IC50 MDR; for SI C/A (Selectivity Index): IC50 NIH/3T3 / IC50 PAR; for IC50: NIH3T3, non-cancer mouse embryonic fibroblasts, MTT, read-out: IC50 NIH/3T3 (C). It counts as cell-based. On the procedure:
(§1) Non-cancer mouse embryonic fibroblasts (NIH/3T3) were also used.
In addition, the antiproliferative activity of the compounds was also evaluated on non-cancerous mouse embryonic fibroblast cells (NIH/3T3), whose values were compared with those of PAR and MDR cells by evaluation of the selective index (SI) values. […] The highest selective index values (SIC/A = 9.39; SIC/B = 10.79) were found for the derivative bearing the trimethoxyphenyl substituent (17).
(§2) L5178Y mouse T-lymphoma cells (ECACC catalog no. 87111908, US FDA, Silver Spring, MD, USA) were transfected with the pHa MDR1/A retrovirus as previously reported. The ABCB1 (P-gp) overexpressing cells were selected by culturing the infected cells with 60 ng/mL of colchicine (Sigma-Aldrich Chemie GmbH, Steinheim, Germany) to preserve the MDR phenotype. L5178Y (parental, PAR) mouse T-cell lymphoma cells and the human ABCB1-transfected subline were cultured in McCoy’s 5A supplemented with 10% heat-inactivated horse serum, 100 U/L L-glutamine, and 100 mg/L penicillin-streptomycin mixture, all obtained from Sigma-Aldrich. The mouse embryonic fibroblast (NIH 3T3) cell line was purchased from ATCC (CRL-1658) and was cultured in DMEM medium supplemented with 10% fetal bovine serum. These adherent cells were detached using 0.25% trypsin and 0.02% EDTA for 5 min at 37 °C. Before the antiproliferative assay using NIH 3T3 cell line, the cells were seeded in untreated 96-well flat bottomed microtiter plates, following a 4 h incubation period in a humidified atmosphere (5% CO2, 95% air) at 37 °C.
For orientation: Tetrazolium assays rely on reduction of a dye to a coloured formazan, in cell work by metabolically active cells.

The test system of data set [3] is human ABCB1-gene transfected L5178Y subline (MDR). The conditions noted are these: for RR (relative resistance ratio) = IC50MDR/IC50PAR: RR ≤ 0.5 means CS effect.
The subject of data set [4] is sensitive L5178Y mouse T-lymphoma cells (PAR). Description: MTT antiproliferative assay, sensitive cells. The data set is classed as cell-based. The settings on record: 72 h, mean ± SD. On the procedure:
as §1, §2
The assay was performed according to the previously applied experimental settings.

`CCC1CN(C)C2Cc3c([nH]c4ccccc34)C(=NN=Cc3cccc([N+](=O)[O-])c3)CC1C2C(=O)OC` (stereo not drawn) [Compound 6, 3-[(3″-nitrobenzylidene)hydrazineylidene]dregamine]: in data set [1], the Interaction entry was “Strong Synergism” and the “CI at ED50 (combination index)” value worked out at 0.279. For the same compound, in data set [2], the “SI C/B (Selectivity Index)” value amounted to 1.65, the “SI C/A (Selectivity Index)” value was found to be 1.21 and the IC50 is 14.4 ± 1.36 µM. In data set [3], the IC50 was found to be 8.72 ± 0.52 µM and the “RR (relative resistance ratio) = IC50MDR/IC50PAR” value was determined as 0.73. The IC50 in data set [4] worked out at 11.9 ± 1.09 µM.
For the compound `CCC1CN(C)C2Cc3c([nH]c4ccccc34)C(=NNC(=O)Nc3ccc(C(F)(F)F)cc3)CC1C2C(=O)OC` (stereo not drawn) [Compound 31, 3-[2″-((4‴-(trifluoromethyl)phenyl)carbamoyl)hydrazineylidene]dregamine], in data set [1], the Interaction entry was “Strong Synergism” and the “CI at ED50 (combination index)” value was 0.296. Further, in data set [2], the “SI C/B (Selectivity Index)” value was 1.03, the “SI C/A (Selectivity Index)” value is on record as 0.96 and the IC50 came out at 6.7 ± 0.06 µM. Moreover, in data set [3], the IC50 is 6.48 ± 0.25 µM and the “RR (relative resistance ratio) = IC50MDR/IC50PAR” value is 0.93. This compound gave an IC50 in data set [4] of 6.97 ± 0.12 µM.
As to `C=CCOc1ccc(C=NN=C2CC3C(CC)CN(C)C(Cc4c2[nH]c2ccccc42)C3C(=O)OC)cc1` (stereo not drawn) [Compound 15, 3-[(4″-(allyloxy)benzylidene)hydrazineylidene]dregamine], in data set [1], the Interaction entry is given as “Strong Synergism” and the “CI at ED50 (combination index)” value is on record as 0.177. Also, in data set [2], the “SI C/B (Selectivity Index)” value came to 2.32, the “SI C/A (Selectivity Index)” value amounted to 1.18 and the IC50 was found to be 14.9 ± 0.72 µM. In addition, in data set [3], the IC50 turned out to be 6.41 ± 0.33 µM and the “RR (relative resistance ratio) = IC50MDR/IC50PAR” value worked out at 0.51. In data set [4], this compound gave an IC50 of 12.6 ± 1.06 µM.
For the compound `CCC1CN(C)C2Cc3c([nH]c4ccccc34)C(=NN=Cc3ccc(OC)cc3)CC1C2C(=O)OC` (stereo not drawn) [Compound 14, 3-[(4″-methoxybenzylidene)hydrazineylidene]dregamine], in data set [1], the Interaction result is listed as “Synergism” and the “CI at ED50 (combination index)” value was 0.402. Further, in data set [2], the “SI C/B (Selectivity Index)” value is recorded as 2.28, the “SI C/A (Selectivity Index)” value turned out to be 1.09 and the IC50 came out at 19.7 ± 0.41 µM. In data set [3], the IC50 turned out to be 8.64 ± 0.67 µM. In addition, the IC50 in data set [4] was determined as 18.1 ± 2.69 µM.
`CCC1CN(C)C2Cc3c([nH]c4ccccc34)C(=NN=Cc3ccc(OCc4ccccc4)cc3)CC1C2C(=O)OC` (stereo not drawn) [Compound 16, 3-[(4″-(benzyloxy)benzylidene)hydrazineylidene]dregamine]: in data set [1], the Interaction entry was “Synergism” and the “CI at ED50 (combination index)” value is reported as 0.34. For the same compound, in data set [2], the “SI C/B (Selectivity Index)” value is 3.12, the “SI C/A (Selectivity Index)” value came to 2.04 and the IC50 is 18.3 ± 1.3 µM. In data set [3], the IC50 worked out at 5.86 ± 0.54 µM and the “RR (relative resistance ratio) = IC50MDR/IC50PAR” value came to 0.66. This compound registered an IC50 in data set [4] of 8.93 ± 0.75 µM.
As for `CCCC=NN=C1CC2C(CC)CN(C)C(Cc3c1[nH]c1ccccc31)C2C(=O)OC` (stereo not drawn) [Compound 3, 3-[(butylidene)hydrazineylidene]dregamine], in data set [1], the Interaction entry is recorded as “Synergism” and the “CI at ED50 (combination index)” value was determined as 0.305. In data set [2], the “SI C/B (Selectivity Index)” value was greater than 3.17, the “SI C/A (Selectivity Index)” value is reported as greater than 1.88 and the IC50 was greater than 100 µM. Besides, in data set [3], the IC50 is 31.5 ± 1.84 µM and the “RR (relative resistance ratio) = IC50MDR/IC50PAR” value worked out at 0.59. The compound also showed an IC50 in data set [4] of 53.1 ± 3.16 µM.
Regarding `CCC1CN(C)C2Cc3c([nH]c4ccccc34)C(=NN=Cc3cccc(OC)c3)CC1C2C(=O)OC` (stereo not drawn) [Compound 7, 3-[(3″-methoxybenzylidene)hydrazineylidene]dregamine], in data set [1], the Interaction entry is “Strong Synergism” and the “CI at ED50 (combination index)” value stood at 0.152. In data set [2], the “SI C/B (Selectivity Index)” value is 2.61, the “SI C/A (Selectivity Index)” value is given as 0.92 and the IC50 was found to be 12.1 ± 1.4 µM. Further, the IC50 in data set [3] came out at 4.62 ± 0.14 µM. In data set [4], this compound returned an IC50 of 13.1 ± 0.74 µM.
For `CCC1CN(C)C2Cc3c([nH]c4ccccc34)C(=NN=Cc3c[nH]c4cc(Br)ccc34)CC1C2C(=O)OC` (stereo not drawn) [Compound 21, 3-[((6-bromo-1H-indol-3-yl)methylene)hydrazineylidene]dregamine], in data set [1], the Interaction entry was “Synergism” and the “CI at ED50 (combination index)” value is reported as 0.445. For the same compound, in data set [2], the “SI C/B (Selectivity Index)” value is 1.14, the “SI C/A (Selectivity Index)” value amounted to 1.08 and the IC50 came to 14.8 ± 2.3 µM. Moreover, in data set [3], the IC50 came out at 12.9 ± 1.57 µM and the “RR (relative resistance ratio) = IC50MDR/IC50PAR” value was found to be 0.95. Besides, in data set [4], the IC50 is 13.62 ± 0.03 µM.
In the case of `CCC1CN(C)C2Cc3c([nH]c4ccccc34)C(=NN=Cc3ccccc3O)CC1C2C(=O)OC` (stereo not drawn) [Compound 5, 3-[(2″-hydroxybenzylidene)hydrazineylidene]dregamine], in data set [1], the Interaction entry is on record as “Strong Synergism” and the “CI at ED50 (combination index)” value came to 0.166. In data set [2], the “SI C/B (Selectivity Index)” value is reported as 2.12, the “SI C/A (Selectivity Index)” value is listed as 0.86 and the IC50 worked out at 12.7 ± 2.29 µM. For the same compound, in data set [3], the IC50 is 5.96 ± 0.26 µM. In data set [4], this compound registered an IC50 of 14.8 ± 1.23 µM.
On to `CCC1CN(C)C2Cc3c([nH]c4ccccc34)C(=NN=Cc3ccc(OC(F)(F)F)cc3)CC1C2C(=O)OC` (stereo not drawn) [Compound 11, 3-[(4″-(trifluoromethoxy)benzylidene)hydrazineylidene]dregamine], for which, in data set [1], the Interaction result is given as “Synergism” and the “CI at ED50 (combination index)” value was 0.601. In data set [2], the “SI C/B (Selectivity Index)” value amounted to 1.60, the “SI C/A (Selectivity Index)” value is 0.57 and the IC50 was determined as 13.5 ± 1.14 µM. For the same compound, the IC50 in data set [3] turned out to be 8.4 ± 0.52 µM. In addition, in data set [4], the IC50 amounted to 23.7 ± 0.64 µM.
Take `CCC1CN(C)C2Cc3c([nH]c4ccccc34)C(=NN=Cc3ccc(O)cc3)CC1C2C(=O)OC` (stereo not drawn) [Compound 13, 3-[(4″-hydroxybenzylidene)hydrazineylidene]dregamine]: in data set [1], the Interaction result is recorded as “Synergism” and the “CI at ED50 (combination index)” value is 0.361. Moreover, in data set [2], the “SI C/B (Selectivity Index)” value was 3.94, the “SI C/A (Selectivity Index)” value turned out to be 1.16 and the IC50 turned out to be 30.5 ± 0.95 µM. This compound registered an IC50 in data set [3] of 7.75 ± 0.55 µM. Further, the IC50 in data set [4] came to 26.4 ± 0.53 µM.
With `CCC1CN(C)C2Cc3c([nH]c4ccccc34)C(=NN=Cc3ccc(C(F)(F)F)cc3)CC1C2C(=O)OC` (stereo not drawn) [Compound 10, 3-[(4″-(trifluoromethyl)benzylidene)hydrazineylidene]dregamine], in data set [1], the Interaction result is recorded as “Strong Synergism” and the “CI at ED50 (combination index)” value is on record as 0.272. In data set [2], the “SI C/B (Selectivity Index)” value stood at 1.06, the “SI C/A (Selectivity Index)” value was found to be 0.60 and the IC50 was found to be 12.4 ± 1.58 µM. For the same compound, in data set [3], the IC50 is 11.7 ± 0.67 µM and the “RR (relative resistance ratio) = IC50MDR/IC50PAR” value is 0.56. In addition, the IC50 in data set [4] worked out at 20.7 ± 0.8 µM.
On to `CCC1CN(C)C2Cc3c([nH]c4ccccc34)C(=NNC(=O)Nc3ccc(C)cc3)CC1C2C(=O)OC` (stereo not drawn) [Compound 26], for which, in data set [1], the Interaction entry is “Synergism” and the “CI at ED50 (combination index)” value amounted to 0.36. For the same compound, in data set [2], the “SI C/B (Selectivity Index)” value stood at 3.15, the “SI C/A (Selectivity Index)” value was 2.75 and the IC50 was found to be 25.9 ± 0.81 µM. In addition, in data set [3], the IC50 was 8.22 ± 1.1 µM and the “RR (relative resistance ratio) = IC50MDR/IC50PAR” value amounted to 0.87. This compound also displayed an IC50 in data set [4] of 9.41 ± 0.13 µM.
